Assays:
[1] = Inhibition of JAK2 V617F mutant in mouse BaF3 cells assessed as reduction in cell viability incubated for 72 hrs by MTT assay
[2] = Inhibition of FLT3 ITD mutant in human MOLM13 cells assessed as reduction in cell viability incubated for 72 hrs by MTT assay
[3] = Inhibition of JAK2 V617F mutant in human SET-2 cells assessed as reduction in cell viability incubated for 72 hrs by MTT assay

Row | Structure (SMILES) | IC50 [1] [nM] | IC50 [2] [nM] | IC50 [3] [nM]
1 | Cc1cnc(Nc2cc3c(cc2F)CN(CCO)CC3)nc1-c1cnn(C(C)C)c1 | 2570 | > 5000 | 4460
2 | Cc1cnc(Nc2ccc3c(c2)CCN(C(=O)/C=C/C(=O)c2ccccc2)C3)nc1-c1cnn(C(C)C)c1 | – | 458 | 52
3 | CC(C)n1cc(-c2nc(Nc3ccc4c(c3)CCN(CCCCO)C4)ncc2F)cn1 | 445 | 455 | 604
4 | Cc1cnc(Nc2ccc3c(c2)CCN(C/C=C/C(=O)NC(C)(C)C)C3)nc1-c1cnn(C(C)C)c1 | 145 | 1060 | 612
5 | Cc1cnc(Nc2ccc3c(c2)CCN(C/C=C/C(=O)NCCN2CCCCC2)C3)nc1-c1cnn(C(C)C)c1 | 1200 | 2090 | 554
6 | CC#CCN1CCc2cc(Nc3ncc(C)c(-c4cnn(C(C)C)c4)n3)ccc2C1 | 908 | 1560 | 794
7 | Cc1cnc(Nc2ccc3c(c2)CCN(CCCCO)C3)nc1-c1cnn(C(C)C)c1 | 234 | 879 | 268
8 | Cc1cnc(Nc2ccc3c(c2)CN(C(=O)/C=C/C(=O)c2ccccc2)CC3)nc1-c1cnn(C(C)C)c1 | 61 | 535 | 43
9 | Cc1cnc(Nc2ccc3c(c2)CN(CCO)C3)nc1-c1cnn(C(C)C)c1 | – | 1780 | –
10 | CCCNC(=O)N1CCc2cc(Nc3ncc(C)c(-c4cnn(C(C)C)c4)n3)ccc2C1 | 1210 | 2070 | 1760
11 | Cc1cnc(Nc2ccc3c(c2)CCN(CCC#N)C3)nc1-c1cnn(C(C)C)c1 | 177 | 356 | 296
12 | Cc1cnc(Nc2ccc3c(c2)CCN(C(=O)Nc2cccc(Cl)c2)C3)nc1-c1cnn(C(C)C)c1 | 2180 | 2070 | 3450
13 | Cc1cnc(Nc2ccc(N3CCC(N(C)CCO)CC3)c(F)c2)nc1-c1cnn(C(C)C)c1 | – | 72 | –
14 | Cc1cnc(Nc2ccc3c(c2)CCN(C(=O)CCCN(C)C)C3)nc1-c1cnn(C(C)C)c1 | 2480 | 1480 | 985
15 | CCOCCN1CCc2cc(Nc3ncc(C)c(-c4cnn(C(C)C)c4)n3)ccc2C1 | 302 | 568 | 339
16 | COC(=O)/C=C/CN1CCc2ccc(Nc3ncc(C)c(-c4cnn(C(C)C)c4)n3)cc2C1 | 120 | 430 | 72
17 | Cc1ccc(C(=O)CCC(=O)N2CCc3cc(Nc4ncc(C)c(-c5cnn(C(C)C)c5)n4)ccc3C2)cc1 | 784 | 1060 | 626
18 | COC(=O)/C=C/CN1CCc2cc(Nc3ncc(C)c(-c4cnn(C(C)C)c4)n3)ccc2C1 | 10 | 497 | 14
19 | Cc1cnc(Nc2ccc3c(c2)CCN(C(=O)/C=C/CN(C)C)C3)nc1-c1cnn(C(C)C)c1 | – | 880 | 12
20 | C=CCN1CCc2cc(Nc3ncc(C)c(-c4cnn(C(C)C)c4)n3)ccc2C1 | 452 | 868 | 288

Row | Structure (SMILES) | IC50 [1] [nM] | IC50 [2] [nM] | IC50 [3] [nM]
21 | Cc1ccc(C(=O)/C=C/C(=O)N2CCc3cc(Nc4ncc(C)c(-c5cnn(C(C)C)c5)n4)ccc3C2)cc1 | 13 | 758 | 15
22 | CC(C)n1cc(-c2nc(Nc3ccc4c(c3)CCN(CCCCCO)C4)ncc2F)cn1 | 420 | 353 | 492
23 | CCCCN1CCc2cc(Nc3ncc(C)c(-c4cnn(C(C)C)c4)n3)ccc2C1 | 640 | 754 | 592
24 | Cc1cnc(Nc2ccc3c(c2)CN(C(=O)/C=C/CN(C)C)CC3)nc1-c1cnn(C(C)C)c1 | 25 | 456 | 15
25 | CC(C)n1cc(-c2nc(Nc3ccc4c(c3)CCN(CCO)C4)ncc2F)cn1 | 760 | 547 | 651
26 | Cc1cnc(Nc2ccc3c(c2)CCN(CCO)C3)nc1-c1cnn(C(C)C)c1 | 431 | 1260 | 323
27 | CCN(CC)C(=O)/C=C/CN1CCc2cc(Nc3ncc(C)c(-c4cnn(C(C)C)c4)n3)ccc2C1 | 287 | 656 | 329
28 | Cc1ccc(C(=O)/C=C/C(=O)N2CCc3ccc(Nc4ncc(C)c(-c5cnn(C(C)C)c5)n4)cc3C2)cc1 | – | 629 | –
29 | C#CCN1CCc2cc(Nc3ncc(C)c(-c4cnn(C(C)C)c4)n3)ccc2C1 | – | 1480 | –
30 | Cc1cnc(Nc2ccc3c(c2)CCN3CCO)nc1-c1cnn(C(C)C)c1 | 4390 | 2060 | 3790
31 | CC(C)n1cc(-c2nc(Nc3ccc4c(c3)CCN(CCCO)C4)ncc2F)cn1 | 392 | 453 | 311
32 | CCNC(=O)N1CCc2cc(Nc3ncc(C)c(-c4cnn(C(C)C)c4)n3)ccc2C1 | 1890 | 1070 | 2350
33 | Cc1cnc(Nc2ccc3c(n2)CCN(CCCO)C3)nc1-c1cnn(C(C)C)c1 | 1430 | 2570 | 2180
34 | COC(=O)CCCN1CCc2cc(Nc3ncc(C)c(-c4cnn(C(C)C)c4)n3)ccc2C1 | 938 | 1290 | 1040
35 | Cc1cnc(Nc2ccc3c(c2)CCN(CC#N)C3)nc1-c1cnn(C(C)C)c1 | – | 647 | 73
36 | Cc1cnc(Nc2ccc3c(c2)CCN(CCCCCO)C3)nc1-c1cnn(C(C)C)c1 | – | 965 | –
37 | Cc1cnc(Nc2ccc3c(c2)CCN(CCCO)C3)nc1-c1cnn(C(C)C)c1 | 365 | 1320 | 394
38 | Cc1cnc(Nc2ccc3c(c2)CN(CC#N)CC3)nc1-c1cnn(C(C)C)c1 | 76 | 425 | 95
39 | CC(C)n1cc(-c2nc(Nc3ccc4c(c3)CCN(C(=O)CO)C4)ncc2F)cn1 | 679 | 453 | 574
40 | Cc1cnc(Nc2ccc3c(c2)CCN(C/C=C/C(=O)O)C3)nc1-c1cnn(C(C)C)c1 | 128 | 845 | 334
